The record followed here is patent US20140213538A1, “LYSOPHOSPHATIDIC ACID RECEPTOR ANTAGONISTS” (InterMune, Inc., priority 2013, published 2014).

Common to all, as to assay type: cell-based
The target of experiment [1] is T1, LPA1 (Homo sapiens, UniProt Q92633). Briefly: LPA1 Migration Assay (Oris). More on the design: host or cells: primary fibroblasts (lung, dermal), HFL-1, 3T3 and CHO cells expressing LPA1R. The conditions noted are these: read-out: Cell Migration EC50. The procedure, abridged:
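Antagonist inhibition was derived by 4-parameter logistic fitting of migrated-cell counts against compound concentration. Dye-loaded, 12-24 h serum-starved fibroblasts, HFL-1, 3T3 or CHO cells expressing LPA1R moved into an Oris detection zone in response to LPA or serum, then were fixed and counted on a high-content reader.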

For experiment [2], the target named is T1, LPA1. Nature of the experiment: Ca Flux LPA1 assay. Details: the full-length cDNA for human LPA1 is obtained by PCR of the reverse transcription reaction; expressed in transfected cells.
The target of experiment [3] is T2, LPA/S1P GPCR of interest (Homo sapiens, UniProt Q92633).
T2 construct: host or cells: CHO
T2 sequence (Q92633 whole entry): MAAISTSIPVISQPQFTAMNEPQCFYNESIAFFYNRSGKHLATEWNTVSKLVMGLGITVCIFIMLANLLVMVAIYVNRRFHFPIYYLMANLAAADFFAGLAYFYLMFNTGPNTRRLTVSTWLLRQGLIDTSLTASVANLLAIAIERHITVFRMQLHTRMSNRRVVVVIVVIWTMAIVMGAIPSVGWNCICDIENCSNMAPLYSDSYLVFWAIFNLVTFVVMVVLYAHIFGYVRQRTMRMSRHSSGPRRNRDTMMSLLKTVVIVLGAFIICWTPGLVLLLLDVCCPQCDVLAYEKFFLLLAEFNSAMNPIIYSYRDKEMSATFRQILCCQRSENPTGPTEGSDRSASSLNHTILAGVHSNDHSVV
Briefly: Beta-Arrestin based assay (PathHunter). The procedure, abridged: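 EA Parental CHO cells (DiscoverX) were transfected with FuGENE (Roche) using CMV promoter-driven DNA constructs encoding the LPA/S1P GPCR of interest fused to a ProLink tag. Beta-arrestin recruitment in agonist mode was assessed 24-48 hrs later with PathHunter kits. Tests ran in quadruplicate in white 384 well plates, and end point luminescence was fit to a 4 parameter logistic function.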

SMILES strings stand for the structures.

T1 sequence (Q92633 whole entry): as above

Broadly, the IC50 is the concentration that gives 50% inhibition. On to `Cc1nsc(-c2ccc(-c3ccc(C4(C(=O)O)CC4)cc3)cc2)c1NC(=O)OC(c1ccccc1)C(F)(F)F` (single isomer, unassigned) [IT078], for which the EC50 in experiment [1] lay in the range of 0.05 to 0.5 µM. The same compound displayed a 50% inhibitory concentration (IC50) in experiment [2] of 0.05 to 0.5 µM.

As to `Cc1noc(-c2ccc(-c3cc(F)c(C4(C(=O)O)CC4)c(F)c3)cc2)c1NC(=O)O[C@H](C)c1ccccc1` [IT234], the EC50 in experiment [3] and in experiment [1] was less than 0.05 µM each time. Also, the half-inhibitory concentration (IC50) in experiment [2] was less than 0.05 µM.

Take `Cc1noc(-c2ccc(-c3ccc(C4(C(=O)O)CCC4)cc3)cc2)c1NC(=O)O[C@H](C)c1ccccc1` [IT235]: the EC50 in experiment [3] and in experiment [1] was less than 0.05 µM each time. The compound further gave an IC50 in experiment [2] of 0.05 to 0.5 µM.

On to `C[C@@H](OC(=O)Nc1c(-c2cc3sc(-c4cc(F)c(C5(C(=O)O)CC5)c(F)c4)cc3s2)nnn1C)c1ccccc1` [IT262], for which the EC50 in experiment [3] was less than 0.05 µM; in experiment [1] it was 0.05 to 0.5 µM. Moreover, in experiment [2], the concentration for half-maximal inhibition (IC50) lay in the range of 0.05 to 0.5 µM.

With `Cc1noc(-c2cc3sc(C#CC4(C(=O)O)CC4)cc3s2)c1NC(=O)O[C@H](C)c1ccccc1` [IT117], the values for the EC50 in experiment [3] and in experiment [1] were less than 0.05 µM and 0.05 to 0.5 µM, respectively. In experiment [2], this compound displayed an IC50 of less than 0.05 µM.

In the case of `Cc1noc(-c2ccc(-c3ccc(S(C)(=O)=O)cc3)cc2)c1NC(=O)O[C@H](C)c1ccccc1` [IT124], the EC50 in experiment [3] is more than 0.5 µM; in experiment [1] it was 0.05 to 0.5 µM. For the same compound, the IC50 in experiment [2] is more than 0.5 µM.

Compound `CCc1nc(C(=O)O)c(Oc2ccc(-c3ccc(-c4onc(C)c4NC(=O)O[C@H](C)c4ccccc4)cc3)cc2)o1` [IT434] gave an EC50 in experiment [3] of less than 0.05 µM. Further, in experiment [2], the concentration for half-maximal inhibition (IC50) is 0.05 to 0.5 µM.

As for `Cc1noc(-c2ccc(-c3ccc(Oc4ccncc4C(=O)O)c(F)c3)cc2)c1NC(=O)O[C@H](C)c1ccccc1` [IT423], the EC50 in experiment [3] was less than 0.05 µM; in experiment [1], 0.05 to 0.5 µM. For the same compound, the IC50 in experiment [2] was less than 0.05 µM.

As to `C[C@@H](OC(=O)Nc1c(C#Cc2cc3sc(C4(C(=O)NS(C)(=O)=O)CC4)cc3s2)cnn1C)c1ccccc1` [IT098], in experiment [2], the half-maximal inhibitory concentration (IC50) is less than 0.05 µM.

Consider `Cc1nsc(-c2ccc(C3CCC(C4(C(=O)O)CC4)CC3)cc2)c1NC(=O)O[C@H](C)c1ccccc1` (stereo partly drawn) [IT091], for which, in experiment [1], the EC50 was more than 0.5 µM. In experiment [2], this compound showed an IC50 of 0.05 to 0.5 µM.

For `C[C@@H](OC(=O)Nc1c(-c2cc3sc(-c4ccc(CC(=O)O)c(Cl)c4)cc3s2)cnn1C)c1ccccc1` [IT165], the values for the EC50 in experiment [3] and in experiment [1] were 0.05 to 0.5 µM and more than 0.5 µM, respectively.

On to `Cc1noc(-c2ccc(-c3ccc(Oc4ccc(F)cc4C(=O)O)cc3)cc2)c1NC(=O)O[C@H](C)c1ccccc1` [IT459], for which the results for the EC50 in experiment [3] and in experiment [1] were less than 0.05 µM and 0.05 to 0.5 µM, respectively.

Turning to `Cc1noc(-c2ccc(-c3ccc(Oc4nnccc4C(=O)O)cc3)cc2)c1NC(=O)O[C@H](C)c1ccccc1` [IT231], the EC50 in experiment [3] and in experiment [1] was 0.05 to 0.5 µM each time.

On to `Cc1nnn(-c2ccc(-c3cc(F)c(OC4(C(=O)O)CC4)c(F)c3)cc2)c1NC(=O)O[C@H](C)c1ccccc1` [IT313], for which the EC50 in experiment [3] is 0.05 to 0.5 µM; in experiment [1], more than 0.5 µM.

As for `CC(=O)NS(=O)(=O)c1ccc(-c2ccc(-c3onc(C)c3NC(=O)O[C@H](C)c3ccccc3)cc2)cc1` [IT131], the EC50 in experiment [3] was 0.05 to 0.5 µM; in experiment [1], more than 0.5 µM.

For `Cc1noc(-c2ccc(-c3ccc(Oc4scnc4C(=O)O)cc3)cc2)c1NC(=O)O[C@H](C)c1ccccc1` [IT420], the figures for the EC50 in experiment [3] and in experiment [1] were less than 0.05 µM and 0.05 to 0.5 µM, respectively.

`Cc1nsc(-c2ccc(-c3ccc(OC(C)(C)C(=O)O)c(F)c3)cc2)c1NC(=O)O[C@H](C)c1ccccc1` [IT507]: the EC50 was 0.05 to 0.5 µM in experiment [3] and more than 0.5 µM in experiment [1].

For `Cc1noc(C#Cc2nc3sc(C4(C(=O)O)CC4)cc3s2)c1NC(=O)O[C@H](C)c1ccccc1` [IT102], the EC50 in experiment [1] was 0.05 to 0.5 µM. Also, the IC50 in experiment [2] was less than 0.05 µM.

For the compound `Cc1nsc(-c2cc3sc(-c4cnc(C5(C(=O)O)CC5)s4)cc3s2)c1NC(=O)O[C@H](C)c1ccccc1` [IT184], the EC50 in experiment [3] and in experiment [1] was more than 0.5 µM throughout.

In the case of `Cc1noc(-c2ccc(-c3ccc(Oc4cc(F)ccc4C(=O)O)cc3)cc2)c1NC(=O)O[C@H](C)c1ccccc1` [IT467], the EC50 in experiment [3] is less than 0.05 µM; in experiment [1] it was 0.05 to 0.5 µM.

`Cc1nsc(-c2cc3sc(-c4ccc(CC(=O)O)nc4)cc3s2)c1NC(=O)O[C@H](C)c1ccccc1` [IT185]: the EC50 in experiment [3] and in experiment [1] was more than 0.5 µM in each case.

`Cc1nsc(-c2ccc(-c3nnc(CC(=O)O)o3)cc2)c1NC(=O)O[C@H](C)c1ccccc1` [IT142]: the EC50 in experiment [3] and in experiment [1] was more than 0.5 µM throughout.

Consider `CCOc1cc(CC(=O)O)ccc1-c1cc2sc(-c3nnn(C)c3NC(=O)O[C@H](C)c3ccccc3)cc2s1` [IT191], for which the EC50 in experiment [3] and in experiment [1] was more than 0.5 µM throughout.

As for `C[C@@H](OC(=O)Nc1c(-c2cc3sc(-c4ccc(C5(C(=O)O)CC5)cc4)cc3s2)nnn1C)c1ccccc1` [IT149], the EC50 was less than 0.05 µM in experiment [3] and 0.05 to 0.5 µM in experiment [1].

With `C[C@@H](OC(=O)Nc1c(-c2cc3sc(-c4ccc5[nH]cc(CC(=O)O)c5c4)cc3s2)cnn1C)c1ccccc1` [IT188], the EC50 in experiment [3] is 0.05 to 0.5 µM; in experiment [1] it was more than 0.5 µM.

Take `C[C@@H](OC(=O)Nc1c(-c2cc3sc(-c4ccc(CC(=O)O)cc4F)cc3s2)cnn1C)c1ccccc1` [IT134]: the values for the EC50 in experiment [3] and in experiment [1] were 0.05 to 0.5 µM and more than 0.5 µM, respectively.

`C[C@@H](OC(=O)Nc1c(C#Cc2nc3sc(C4(C(=O)O)CC4)cc3s2)cnn1C)c1ccccc1` [IT095]: in experiment [2], the IC50 is less than 0.05 µM.

Consider `Cc1nsc(-c2cc3sc(-c4ccc(CC(=O)O)c(Cl)c4)cc3s2)c1NC(=O)O[C@H](C)c1ccccc1` [IT167], for which the EC50 in experiment [3] and in experiment [1] was more than 0.5 µM throughout.

As to `Cc1nsc(-c2ccc(-c3ccc(OC4(C(=O)O)CC4)cc3)cc2)c1NC(=O)O[C@H](C)c1ccccc1` [IT513], the EC50 in experiment [3] was less than 0.05 µM; in experiment [1], 0.05 to 0.5 µM.

As to `C[C@@H](OC(=O)Nc1c(-c2cc3sc(-c4ccc(C5(C(=O)O)CC5)c(F)c4)cc3s2)cnn1C)c1ccccc1` [IT295], the EC50 was less than 0.05 µM in experiment [3] and 0.05 to 0.5 µM in experiment [1].

Consider `Cc1nsc(-c2ccc(-c3cc(F)c(Oc4ccsc4C(=O)O)c(F)c3)cc2)c1NC(=O)O[C@H](C)c1ccccc1` [IT462], for which the EC50 in experiment [3] and in experiment [1] was less than 0.05 µM each time.

For `Cc1nsc(-c2cc3sc(-c4ccc(CC(=O)O)cc4)cc3s2)c1NC(=O)O[C@H](C)c1ccccc1` [IT133], the EC50 in experiment [3] was 0.05 to 0.5 µM; in experiment [1] it was more than 0.5 µM.

Take `C[C@@H](OC(=O)Nc1c(-c2cc3sc(-c4ccc(C5(C(=O)O)CC5)c(F)c4F)cc3s2)cnn1C)c1ccccc1` [IT364]: the EC50 was less than 0.05 µM in experiment [3] and 0.05 to 0.5 µM in experiment [1].

In the case of `Cc1nsc(-c2cc3sc(-c4ccc(CC(=O)O)cc4N)cc3s2)c1NC(=O)O[C@H](C)c1ccccc1` [IT182], the EC50 in experiment [3] and in experiment [1] was more than 0.5 µM throughout.

Turning to `Cc1noc(-c2ccc(-c3ccc(S(=O)(=O)C4CC4)cc3)cc2)c1NC(=O)O[C@H](C)c1ccccc1` [IT173], the EC50 in experiment [3] and in experiment [1] was more than 0.5 µM throughout.

Turning to `C[C@@H](OC(=O)Nc1c(C#Cc2cc3sc(C4(C(=O)O)CC4)cc3s2)cnn1C)c1c(F)c(F)c(F)c(F)c1F` [IT118], the EC50 in experiment [3] and in experiment [1] was more than 0.5 µM throughout.

In the case of `Cc1noc(-c2ccc(-c3ccc(S(=O)(=O)NC(=O)C4CC4)cc3)cc2)c1NC(=O)O[C@H](C)c1ccccc1` [IT138], the EC50 was less than 0.05 µM in experiment [3] and 0.05 to 0.5 µM in experiment [1].

`Cc1nsc(-c2ccc(-c3ccc(CC(=O)O)s3)cc2)c1NC(=O)O[C@H](C)c1ccccc1` [IT141]: the EC50 in experiment [3] and in experiment [1] was more than 0.5 µM throughout.

For the compound `C[C@@H](OC(=O)Nc1c(-c2cc3sc(-c4ccc(CC(=O)O)c(F)c4)cc3s2)cnn1C)c1ccccc1` [IT164], the results for the EC50 in experiment [3] and in experiment [1] were less than 0.05 µM and more than 0.5 µM, respectively.

Turning to `C[C@@H](OC(=O)Nc1c(-c2ccc(-c3ccc(Oc4ccc(F)cc4C(=O)O)cc3)cc2)nnn1C)c1ccccc1` [IT460], the EC50 in experiment [3] and in experiment [1] was less than 0.05 µM throughout.

As for `Cc1nnn(-c2ccc(-c3ccc(Oc4cccc(F)c4C(=O)O)cc3)cc2)c1NC(=O)O[C@H](C)c1ccccc1` [IT457], the EC50 was 0.05 to 0.5 µM in experiment [3] and more than 0.5 µM in experiment [1].

For the compound `CCOc1cc(CC(=O)O)ccc1-c1cc2sc(-c3snc(C)c3NC(=O)O[C@H](C)c3ccccc3)cc2s1` [IT192], the EC50 in experiment [3] and in experiment [1] was more than 0.5 µM throughout.

Turning to `C[C@@H](OC(=O)Nc1c(C#Cc2sc3cc(C4(C(=O)O)CC4)sc3c2C(F)(F)F)cnn1C)c1ccccc1` [IT103], the EC50 in experiment [1] lay in the range of 0.05 to 0.5 µM. The IC50 in experiment [2] is less than 0.05 µM.

As for `C[C@@H](OC(=O)Nc1c(-c2ccc(-c3ccc(CC(=O)O)s3)cc2)nnn1C)c1ccccc1` [IT178], the EC50 is 0.05 to 0.5 µM in experiment [3] and more than 0.5 µM in experiment [1].

`C[C@@H](OC(=O)Nc1c(C(F)(F)F)nnn1-c1ccc(-c2ccc(C3(C(=O)O)CC3)cc2)cc1)c1ccccc1` [IT072]: the EC50 in experiment [1] is more than 0.5 µM. The IC50 in experiment [2] lay in the range of 0.05 to 0.5 µM.

For `COc1cc(CC(=O)O)ccc1-c1cc2sc(-c3nnn(C)c3NC(=O)O[C@H](C)c3ccccc3)cc2s1` [IT183], the EC50 in experiment [3] and in experiment [1] was more than 0.5 µM each time.
